Read-outs that look alike come from different tables or passages of the source.
Assay: TD Phase (Groups 1 and 3): plasma and ocular tissue concentrations and pharmacokinetics of Compound 18 and its metabolite Compound 4 after once daily ocular instillation of Compound 18 nanosuspension for 7 days
Assay type: in vivo, New Zealand white rabbits
Conditions: for concentration at 2 h / concentration at 4 h / concentration at 8 h / concentration at 0.5 h / concentration at 1 h / Cmax / Tmax / AUC(0-t) / half-life: male, New Zealand white, rabbit; for concentration at 2 h / concentration at 4 h / concentration at 8 h / concentration at 0.5 h / concentration at 1 h: TD Phase; for concentration at 2 h: Group 3, 2 h; for concentration at 4 h: Group 3, 4 h; for concentration at 8 h: Group 3, 8 h; for concentration at 0.5 h: Group 3, 0.5 h; for concentration at 1 h: Group 1, 1 h; for Cmax / Tmax / AUC(0-t) / half-life: topical or ocular; for AUC(0-t): read-out: AUC0-8
Description: This example illustrates the procedures and results for the levels of Compound 18 and its metabolite Compound 4 in plasma and ocular tissues of normotensive rabbits following ocular instillation of Compound 18 once daily for 7 consecutive days.
Twenty five (25) male New Zealand white rabbits were divided into 5 groups of varying amounts of animals per group.
The Test article, Compound 18 was formulated as a 2% nanosuspension in DI water containing 0.2% PS80 (polyoxyethylenesorbitan, monooleate (Tween 80)) and 0.4% HPMC (hydroxypropylmethylcellulose) at pH 6.77. Referred to herein as “Compound 18 nanosuspension.”
The study consisted of three groups (Groups 1-3) of 19 male rabbits (NZW) that underwent once daily morning ocular installation (1 eyedrop) for 7 consecutive days (Day 0-6). Groups 4-5 each consisted of 3 male rabbits (NZW) that were not dosed.
Blood samples (1 mL) were collected from the jugular vein at the intervals set out below for each group. The samples were then inverted several times following collection and held on wet ice until centrifuged. Samples were centrifuged within 60 minutes of collection under refrigeration (set at 5° C. for 10 minutes at 2000 g.
Group 1 (Pilot Study, terminal blood collection): blood was collected from 3 animals at 1 hour post day 7 dose of Compound 18 nanosuspension.
Group 3 (TD Phase, terminal blood collection): blood was collected from 3 animals at 0.5 hour, 3 animals at 2 hours, 3 animals at 4 hours, and 3 animals at 8 hours post day 7 dose of Compound 18 nanosuspension.
(§1) Group 1 (Pilot Study): 3 animals were terminated at 1 hour post Day 7 dose of Compound 18 nanosuspension. Following blood collection and termination, ocular tissues (aqueous humor, vitreous humor, cornea, iris/ciliary body, lens, optic nerve, retina, sclera/choroid, and trabecular meshwork) were collected from each animal and the tissue weights were recorded. Note: sclera and choroid were collected together. Iris and ciliary body were collected together.
as §1, with “3 (TD Phase):” for “1 (Pilot Study):”, “0.5 hour, 3 animals at 2 hours, 3 animals at 4 hours, and 3 animals at 8 hours” for “1 hour”
Plasma and tissue samples from treated animals (Groups 1-3) were analyzed for Compound 18 and its metabolite Compound 4 concentrations by LC-MS/MS.
Pharmacokinetic analysis was conducted using WinNonlin Version 6.2.1 (Pharsight, Mountain View, Calif.), operating as a validated software system. Noncompartmental analysis was conducted using the extravascular administration model for ocular instillation dosing.
The peak plasma and ocular tissue concentration, time to achieve peak plasma and ocular tissue concentration, half-life, and area under the plasma and ocular tissue concentration-time curve (Cmax, Tmax, T1/2, and AUC) were calculated from the TD phase combined with the pilot study mean animal plasma and ocular tissue concentrations for each sampling time/dose group for Compound 18 and its metabolite Compound 4.
BA Assay: Quantitation Range 0.05 to 100 ng/mL for Compound 18, 0.15 to 100 ng/mL for Compound 4.
3. Pipet 50 μL of each type of pre-spiked ocular tissue samples (AH/VH) for QC samples, 50 μL of incurred aqueous humor, and vitreous humor sample (if applicable) into a 96 well plate.
Ocular Tissues Homogenate Preparation: Incurred rabbit ocular tissues were weighed in Genogrinder tubes (plastic tubes with small beads) at the time of removal from the animal and stored frozen (<−70° C.) until analysis. The rabbit incurred ocular tissues were thawed on wet ice. […]

[1] = iris/ciliary body, topical, 2 mg/day, Mean, read-out: Final Compound 18 Iris/Ciliary Body Conc.
[2] = lens homogenate, topical, 2 mg/day, individual animals, homogenate dilution factor 5, read-out: Compound 18 Lens Homogenate Conc.
[3] = lens, topical, 2 mg/day, Mean, read-out: Final Compound 18 Lens Conc.
[4] = lens, topical, 2 mg/day, individual animals, BQL set to 0, read-out: Final Compound 18 Lens Conc.
[5] = optic nerve, other: ocular instillation (eye drop), 0.798 mg/kg/day, Mean, read-out: Final Compound 18 Optic Nerve Conc.
[6] = plasma, other: ocular instillation (eye drop), 0.8 mg/kg/day, Mean, BQL set to 0, read-out: Compound 18 Plasma Conc.
[7] = plasma, other: ocular instillation (eye drop), 0.8 mg/kg/day, individual animals, read-out: Compound 18 Plasma Conc.
[8] = plasma, other: ocular instillation, 0.8 mg/kg/day, Mean, BQL set to 0, read-out: Compound 18 Plasma Conc.
[9] = retina, other: ocular instillation (eye drop), 0.798 mg/kg/day, Mean, read-out: Final Compound 18 Retina Conc.
[10] = sclera/choroid, other: ocular instillation (eye drop), 0.798 mg/kg/day, Mean, read-out: Final Compound 18 Sclera/Choroid Conc.
[11] = 0.8 mg/kg/day, aqueous humor, Day 7, from mean concentrations
[12] = 0.8 mg/kg/day, cornea, Day 7, from mean concentrations
[13] = 0.8 mg/kg/day, iris/ciliary body, Day 7, from mean concentrations
[14] = 0.8 mg/kg/day, lens, Day 7, from mean concentrations
[15] = 0.8 mg/kg/day, optic nerve, Day 7, from mean concentrations
[16] = 0.8 mg/kg/day, plasma, Day 7, from mean concentrations
[17] = 0.8 mg/kg/day, retina, Day 7, from mean concentrations
[18] = 0.8 mg/kg/day, sclera/choroid, Day 7, from mean concentrations
[19] = 0.8 mg/kg/day, trabecular meshwork, Day 7, from mean concentrations
[20] = 0.8 mg/kg/day, vitreous humor, Day 7, from mean concentrations
[21] = trabecular meshwork, other: ocular instillation (eye drop), 0.798 mg/kg/day, Mean, read-out: Final Compound 18 Trabecular Meshwork Conc.
[22] = vitreous humor, other: ocular instillation (eye drop), 0.8 mg/kg/day, Mean, BQL set to 0, read-out: Compound 18 Vitreous Humor Conc.
[23] = vitreous humor, other: ocular instillation (eye drop), 0.8 mg/kg/day, individual animals, read-out: Compound 18 Vitreous Humor Conc.

CCCc1nn(C)c2c(=O)[nH]c(-c3cc(S(=O)(=O)N4CC(CCCO[N+](=O)[O-])C4)ccc3OCC)nc12 [Compound 18, 3-(1-((4-ethoxy-3-(1-methyl-7-oxo-3-propyl-6,7-dihydro-1H-pyrazolo[4,3-d]pyrimidin-5-yl)phenyl)sulfonyl)azetidin-3-yl)propyl nitrate]
concentration at 2 h [1]: 5.56 ng/g | concentration at 4 h [1]: 4.87 ng/g | concentration at 8 h [1]: 0.967 ng/g | concentration at 0.5 h [2]: 1.27 ng/mL | concentration at 4 h [2]: 0.0767 ng/mL | concentration at 8 h (lens, other: ocular instillation (eye drop), 0.798 mg/kg/day, Mean, read-out: Final Compound 18 Lens Conc.): 0 ng/g | concentration at 1 h [3]: 0 ng/g | concentration at 1 h [4]: 0 ng/g | concentration at 0.5 h [3]: 2.12 ng/g | concentration at 2 h [3]: 0 ng/g | concentration at 2 h [4]: 0 ng/g | concentration at 4 h [3]: 0.128 ng/g | concentration at 8 h [4]: 0 ng/g | concentration at 1 h (optic nerve homogenate, other: ocular instillation (eye drop), 0.798 mg/kg/day, individual animals, homogenate dilution factor 20, read-out: Compound 18 Optic Nerve Homogenate Conc.): 11.8 ng/mL | concentration at 1 h [5]: 231 ng/g | concentration at 1 h (optic nerve, other: ocular instillation (eye drop), 0.798 mg/kg/day, individual animals, read-out: Final Compound 18 Optic Nerve Conc.): 236 ng/g | concentration at 0.5 h [5]: 110 ng/g | concentration at 2 h [5]: 378 ng/g | concentration at 4 h [5]: 128 ng/g | concentration at 8 h [5]: 61.6 ng/g | concentration at 2 h [6]: 0.0397 ng/mL | concentration at 2 h [7]: 0.119 ng/mL | concentration at 8 h [6]: 0.0172 ng/mL | concentration at 8 h [7]: 0.0517 ng/mL | concentration at 1 h [8]: 0.0407 ng/mL | concentration at 1 h (plasma, other: ocular instillation, 0.8 mg/kg/day, individual animals, read-out: Compound 18 Plasma Conc.): 0.0641 ng/mL | concentration at 0.5 h [8]: 0.261 ng/mL | concentration at 0.5 h (retina homogenate, other: ocular instillation (eye drop), 0.798 mg/kg/day, individual animals, homogenate dilution factor 20, read-out: Compound 18 Retina Homogenate Conc.): 0.798 ng/mL | concentration at 1 h [9]: 18.1 ng/g | concentration at 0.5 h [9]: 22 ng/g | concentration at 0.5 h (retina, other: ocular instillation (eye drop), 0.798 mg/kg/day, individual animals, BQL set to 0, read-out: Final Compound 18 Retina Conc.): 16 ng/g | concentration at 2 h [9]: 34.8 ng/g | concentration at 4 h [9]: 27.3 ng/g | concentration at 8 h [9]: 7.17 ng/g | concentration at 1 h (sclera/choroid homogenate, other: ocular instillation (eye drop), 0.798 mg/kg/day, individual animals, homogenate dilution factor 8, read-out: Compound 18 Sclera/Choroid Homogenate Conc.): 3.89 ng/mL | concentration at 1 h [10]: 45.3 ng/g | concentration at 1 h (sclera/choroid, other: ocular instillation (eye drop), 0.798 mg/kg/day, individual animals, read-out: Final Compound 18 Sclera/Choroid Conc.): 31.1 ng/g | concentration at 0.5 h [10]: 107 ng/g | concentration at 2 h [10]: 246 ng/g | concentration at 4 h [10]: 241 ng/g | concentration at 8 h [10]: 26.8 ng/g | Cmax [11]: 0.063 ng/mL | Tmax [11]: 1 h | AUC(0-t) [11]: 0.0158 ng·h/mL | Cmax [12]: 181 ng/g | Tmax [12]: 1 h | half-life [12]: 1.33 h | Cmax [13]: 107 ng/g | Tmax [13]: 1 h | half-life [13]: 2.25 h | Cmax [14]: 2.12 ng/g | Tmax [14]: 0.5 h | half-life [14]: 0.865 h | Cmax [15]: 378 ng/g | Tmax [15]: 2 h | half-life [15]: 2.43 h | Cmax [16]: 0.261 ng/mL | Tmax [16]: 0.5 h | AUC(0-t) [16]: 0.255 ng·h/mL | Cmax [17]: 34.8 ng/g | Tmax [17]: 2 h | half-life [17]: 2.54 h | Cmax [18]: 246 ng/g | Tmax [18]: 2 h | half-life [18]: 1.76 h | Cmax [19]: 7.67 ng/g | Tmax [19]: 1 h | half-life [19]: 2.64 h | Cmax [20]: 0.0257 ng/mL | Tmax [20]: 0.5 h | AUC(0-t) [20]: 0.0242 ng·h/mL | Cmax (Cornea, Day 7, Compound 18 0.8 mg/kg ocular instillation once daily, Groups 1 and 3): 181 ng/g | concentration at 1 h [21]: 7.67 ng/g | concentration at 0.5 h [21]: 7.01 ng/g | concentration at 2 h [21]: 11.8 ng/g | concentration at 4 h [21]: 5.52 ng/g | concentration at 8 h (trabecular meshwork, other: ocular instillation, 0.8 mg/kg/day, Mean, read-out: Final Compound 18 Trabecular Meshwork Conc.): 1.93 ng/g | concentration at 0.5 h [22]: 0.0257 ng/mL | concentration at 0.5 h [23]: 0.0771 ng/mL | concentration at 2 h [22]: 0.0228 ng/mL | concentration at 2 h [23]: 0.0683 ng/mL | AUC0-8 (optic nerve, Day 7, from mean concentrations): 1302 ng·h/g | AUC0-8 (retina, Day 7, from mean concentrations): 173 ng·h/g | AUC0-8 (sclera/choroid, Day 7, from mean concentrations): 1234 ng·h/g | AUC0-8 (trabecular meshwork, Day 7, from mean concentrations): 32.4 ng·h/g
